Among the data in publication PMC12040169 (PLOS Biology, 2025) are viability values, retold here.

The nature of this series: in vitro. Conditions: human, hela cells, % viability.
Consider `Cc1ccc(-n2c(O)nnc2-c2ccc(Cl)c(Cl)c2)cc1` [CBK074887], for which the viability at 28.5 h, 10 µM was 94.5%.

For the compound `Cc1cc(C)nc(Nc2n[nH]c(COc3ccccc3)n2)n1` [CBK268016], the viability at 28.5 h, 10 µM is 93.2%.

`Cc1nn(C(C)C)c(C)c1CN1CCC(c2c(C(=O)NC(C)C)sc3ccccc23)C1` (centres unmarked) [CBK285890]: the viability at 28.5 h, 10 µM was determined as 95.5%.

`Cc1nc(NS(=O)(=O)c2cc(F)c(Br)cc2F)sc1C(=O)O` [CBK045556]: the viability at 28.5 h, 10 µM was 96.5%.

Regarding `O=C(Nc1ccncc1)c1c(O)c2ccccc2[nH]c1=O` [CBK288017], the viability at 28.5 h, 10 µM amounted to 112%.

As for `O=C(Cn1cccn1)NCC(c1ccccc1Cl)N1CCOCC1` (centres unmarked) [CBK305593], the viability at 28.5 h, 10 µM came to 93.1%.

As to `COc1ccc(N2CCN(c3nc(N4CCOCC4)nc(N4CCOCC4)n3)CC2)cc1` [CBK264166], the viability at 28.5 h, 10 µM stood at 100%.

Regarding `O=[N+]([O-])c1ccc(NCCCNS(=O)(=O)c2ccc3ccccc3c2)c(Cl)c1` [CBK262006], the viability at 28.5 h, 10 µM was found to be 79.3%.

Regarding `O=C1N=C(NC23CC4CC(CC(C4)C2)C3)OC1c1ccccc1` (centres unmarked) [CBK105263], the viability at 28.5 h, 10 µM is 107%.

With `Cn1cc(CCCNC(=O)c2cccc(CN3CCCCCC3)c2)cn1` [CBK306906], the viability at 28.5 h, 10 µM turned out to be 93.7%.

For the compound `Cc1ccc(CN(CCCn2ccnc2)Cc2cnn(C)c2)s1` [CBK283113], the viability at 28.5 h, 10 µM stood at 97.3%.

`O=C(c1cccc(F)c1)N1C2CCC1CC(O)(c1cccnc1F)C2` (centres unmarked) [CBK284422]: the viability at 28.5 h, 10 µM is 104%.

Consider `CC(=O)NC(CSc1cc(C)nc2ccccc12)C(=O)O` (centres unmarked) [CBK286755], for which the viability at 28.5 h, 10 µM stood at 87.4%.

For `CN(C)c1ccc(-c2noc([C@@H]3CCCN3C3CCOCC3)n2)cn1` [CBK288903], the viability at 28.5 h, 10 µM came out at 93.8%.

In the case of `O=C1CCCCCN1CP(=O)(O)CCc1ccccc1` [CBK262313], the viability at 28.5 h, 10 µM stood at 99.7%.

In the case of `O=C(Nc1ccsc1C(=O)O)c1ccc(Cl)cc1` [CBK076902], the viability at 28.5 h, 10 µM turned out to be 96.8%.

In the case of `COc1ccc(C(=O)Nc2ccc3c(c2)C(=O)N(CCC(=O)O)C3=O)cc1` [CBK265921], the viability at 28.5 h, 10 µM was 93.1%.

In the case of `CN(C(=O)CN1CCN(c2cc(-c3cccc4oc5ccccc5c34)ncn2)CC1)c1ccccc1` [CBK091130], the viability at 28.5 h, 10 µM was 97.8%.

For `COCCC(=O)NC(Cc1ccsc1)c1nc(C)cs1` (centres unmarked) [CBK282830], the viability at 28.5 h, 10 µM worked out at 85.1%.

For the compound `O=C(C1CCCC1)N1CCC[C@@H]1Cn1c(=O)oc2ccccc21` [CBK284539], the viability at 28.5 h, 10 µM came out at 87.3%.

As for `CSc1nc(O)nc(-c2ccccc2)n1` [CBK086310], the viability at 28.5 h, 10 µM was determined as 95.4%.

For `Cn1c(=O)c2c(nc(CN3CCC(Cc4ccccc4)CC3)n2CCN2CCOCC2)n(C)c1=O` [CBK269380], the viability at 28.5 h, 10 µM is 100%.

As for `Cc1cc(C)c2nc(NC(=O)c3ccc(=O)n(CC(=O)NC4CCCCC4)c3)sc2c1` [CBK285980], the viability at 28.5 h, 10 µM amounted to 107%.

`CCN1CCCC1CN(Cc1ccncc1)Cc1ccoc1` (centres unmarked) [CBK283171]: the viability at 28.5 h, 10 µM stood at 91%.

Take `Cc1nc(C(F)(F)F)ccc1C(=O)NCC(C)(C)N1CCCCC1` [CBK281864]: the viability at 28.5 h, 10 µM was 98%.

`COc1ccc(-c2nc3ncccc3cc2O)cc1C` [CBK073700]: the viability at 28.5 h, 10 µM amounted to 70.1%.

For the compound `CC(C)(O)C#Cc1ccc(C(=O)NCCCNC(=O)c2ccc(C#CC(C)(C)O)s2)s1` [CBK267142], the viability at 28.5 h, 10 µM stood at 93.8%.

Regarding `O=C(Nc1sc2c(c1C(=O)NCc1cccnc1)CCCC2)c1ccc(Cl)cc1` [CBK265498], the viability at 28.5 h, 10 µM came out at 88.2%.

On to `CCOc1cc(C2Nc3ccccc3NC3=C2C(=O)C(C(=O)OC)C(C)C3)ccc1OC(C)C` (centres unmarked) [CBK268456], for which the viability at 28.5 h, 10 µM was found to be 111%.

As to `CSc1nn(C)c(=S)c2c3c(oc12)CCC3` [CBK019474], the viability at 28.5 h, 10 µM is 92.3%.

As to `Cc1cc(C(=O)O)ccc1NC(=O)CCCC(=O)O` [CBK267917], the viability at 28.5 h, 10 µM amounted to 90.8%.

For `Cc1cc(COc2cc(C(F)(F)F)ccn2)no1` [CBK115787], the viability at 28.5 h, 10 µM came to 134%.

For the compound `O=C(Nc1ccc2n(c1=O)C[C@H]1C[C@@H]2CN(C(=O)Nc2ccc(F)cc2)C1)c1ccco1` [CBK289205], the viability at 28.5 h, 10 µM turned out to be 85.4%.

Regarding `COc1ccc(CN2CCN(c3ccccc3F)CC2)cc1OCc1ccccc1` [CBK261900], the viability at 28.5 h, 10 µM amounted to 115%.

For the compound `COc1ccccc1CN(Cc1cccs1)C(=O)Cn1cnnn1` [CBK305866], the viability at 28.5 h, 10 µM was 96.5%.

With `Cn1cc(C(=O)Nc2c(F)cc(F)cc2OC2CCNCC2)c2ccccc21` [CBK050328T], the viability at 28.5 h, 10 µM was 89.1%.

As to `O=C(Cn1ncn2c(cc3ccsc32)c1=O)N1CCCCCC1` [CBK284202], the viability at 28.5 h, 10 µM came out at 81.7%.

Regarding `Cc1cc(NC(=O)CN(C)C(=O)Cc2cccc(C(F)(F)F)c2)no1` [CBK305564], the viability at 28.5 h, 10 µM is 80.5%.

In the case of `C(=N\Nc1nc(-c2ccccc2)cs1)/c1ccccc1` [CBK261327], the viability at 28.5 h, 10 µM stood at 101%.

For `O=c1c2cc(F)ccc2nc2n1CCN(Cc1ccsc1)CC2` [CBK284860], the viability at 28.5 h, 10 µM worked out at 106%.

Consider `CCCC/C=C/c1cnc(N)c(N[C@@H](C)c2ccccc2)n1` [CBK063722], for which the viability at 28.5 h, 10 µM was 109%.

As to `Cc1ccc(NC(=O)CN2C(=O)S/C(=C/c3ccc(-c4ccc(Cl)c(C(=O)O)c4)o3)C2=O)cc1` [CBK078256], the viability at 28.5 h, 10 µM stood at 86.3%.

Turning to `O=C(CSCc1cccc(Br)c1)Nc1cccc2cccnc12` [CBK261204], the viability at 28.5 h, 10 µM stood at 101%.

As to `O=C(NCCC1=CCCCC1)c1cnc2n(c1=O)CCS2` [CBK287373], the viability at 28.5 h, 10 µM turned out to be 89.8%.

As to `CCOC(=O)c1csc(C2CCCN2C(=O)c2cc(SC)ccc2Cl)n1` (centres unmarked) [CBK306491], the viability at 28.5 h, 10 µM worked out at 88%.

As to `CCCC(=O)N1CCC[C@H]1Cn1nc(-c2ccc(F)cc2)ccc1=O` [CBK284288], the viability at 28.5 h, 10 µM worked out at 99.5%.

Regarding `COC(=O)Cc1ccc(NC(=S)N2CCC(C(N)=O)(N3CCCCC3)CC2)cc1` [CBK266101], the viability at 28.5 h, 10 µM was determined as 97.6%.

In the case of `COc1nccnc1N1CCN(CCc2c[nH]c3ccccc23)CC1` [CBK084231], the viability at 28.5 h, 10 µM was 89.2%.

In the case of `O=C(CCn1c(C(F)F)cc2cccnc21)NC1CCCC1` [CBK285063], the viability at 28.5 h, 10 µM turned out to be 95.5%.

As to `O=c1[nH]cc(S(=O)(=O)Nc2ccccc2)c(=O)[nH]1` [CBK287703], the viability at 28.5 h, 10 µM was 93.5%.

As for `Cc1cc(-c2cnc(N)nc2)cc(C2CCCN(S(=O)(=O)c3ccc(F)c(C)c3)C2)n1` (centres unmarked) [CBK285934], the viability at 28.5 h, 10 µM was 105%.

With `CC[C@H](C)[C@H](NC(=O)C1CCN(S(=O)(=O)c2ccc(Cl)c(C(F)(F)F)c2)CC1)C(=O)O` [CBK297117], the viability at 28.5 h, 10 µM was found to be 91.5%.

As to `O=C1c2ccccc2C(=O)N1CCCSc1nnc(-c2ccncc2)n1-c1ccccc1` [CBK263419], the viability at 28.5 h, 10 µM came out at 102%.

Take `CC(C)Cn1c(CN2CCOCC2)nc2c1c(=O)n(C)c(=O)n2C` [CBK305913]: the viability at 28.5 h, 10 µM worked out at 91.3%.

As for `Cc1[nH]c2ccccc2c1/C=N/c1ccc(S(N)(=O)=O)cc1` [CBK261352], the viability at 28.5 h, 10 µM came out at 96%.

As to `CCN1C(=O)COC[C@@H]1[C@H](O)c1ccc(NC(=O)c2ccco2)cc1` [CBK289695], the viability at 28.5 h, 10 µM is 85.3%.

For `O=C1Nc2ccccc2/C1=C/c1c[nH]cn1` [CBK115386], the viability at 28.5 h, 10 µM was determined as 92.8%.

Take `O=C(Cc1cccs1)N1CCC(O)(c2ccccn2)CC1` [CBK283587]: the viability at 28.5 h, 10 µM was determined as 96.4%.

Regarding `O=S1(=O)Cc2ccccc2C(Oc2cncc(N3CCNCC3)n2)C1` (centres unmarked) [CBK172344T], the viability at 28.5 h, 10 µM turned out to be 91.2%.

Turning to `CCCn1cc(S(=O)(=O)N2CCCC2c2ccc(Nc3cccc(C)n3)cn2)c(C)n1` (centres unmarked) [CBK286258], the viability at 28.5 h, 10 µM stood at 77.6%.

As to `COc1ccc(S(=O)(=O)N2CCC(C(=O)NCc3cccnc3)CC2)cc1Cl` [CBK267613], the viability at 28.5 h, 10 µM was 95.2%.

On to `O=C(CN1CCC(c2ccc(F)cc2)CC1)N1CCCC1` [CBK283502], for which the viability at 28.5 h, 10 µM is 98.7%.

`O=C(NC1CCCC1)c1ccncc1` [CBK143916]: the viability at 28.5 h, 10 µM is 117%.

`CCNc1cncc(-c2cc(OC)c(OC)c(OC)c2)n1` [CBK065336]: the viability at 28.5 h, 10 µM came to 99.1%.

On to `COc1ccccc1-c1cn2ccnc2c(N(C)CCN(C)C)n1` [CBK066156], for which the viability at 28.5 h, 10 µM is 97.5%.

Take `CN(C)C[C@@H]1Cc2cccc3cccc(c23)[C@@H]1O` [CBK005877C]: the viability at 28.5 h, 10 µM was determined as 111%.

In the case of `O=C1C[C@@H]2CCN(C(=O)Nc3cccc(C(F)(F)F)c3)C[C@@H]2CCN1CCc1c[nH]cn1` [CBK288786], the viability at 28.5 h, 10 µM amounted to 105%.

For the compound `Cc1cc(SCc2ccc(Cl)cc2)nc(=O)[nH]1` [CBK287719], the viability at 28.5 h, 10 µM worked out at 90.8%.

In the case of `CC(C)(CN1C(=O)c2ccccc2C1=O)C(O)C(=O)O` (centres unmarked) [CBK286582], the viability at 28.5 h, 10 µM was determined as 82.3%.

As to `O=C1N=C(NC2C3CC4CC(C3)CC2C4)OC12CCN(CCC(F)(F)F)CC2` (centres unmarked) [CBK115640], the viability at 28.5 h, 10 µM turned out to be 91.4%.

As for `Cc1ccc(C)c(NC(=O)CCc2c(C)[nH]c3ncnn3c2=O)c1` [CBK304646], the viability at 28.5 h, 10 µM is 94.5%.

In the case of `Cc1ccc2[nH]c(=O)c(CNc3ccc4[nH]ncc4c3)cc2c1` [CBK281936], the viability at 28.5 h, 10 µM amounted to 73%.

With `CN(C)CCC(O)(c1ccccc1)c1cc2c(cc1Cl)CCC2` (centres unmarked) [CBK010000C], the viability at 28.5 h, 10 µM is 99.5%.

As for `COc1ccc(-c2nc(COC(=O)c3cccnc3N)cs2)cc1OC` [CBK296741], the viability at 28.5 h, 10 µM came to 82.6%.

`O=C(Nc1ccc(Cl)c(C(=O)O)c1)c1cccc(-n2cnnc2)c1` [CBK270016]: the viability at 28.5 h, 10 µM turned out to be 86.5%.

For `CS(=O)(=O)NC1CCCN(Cc2nc(N)c3ccccc3n2)C1` (centres unmarked) [CBK304889], the viability at 28.5 h, 10 µM was determined as 93.8%.

`CCCOc1ccc(C(=O)N2CCN(c3ccccc3)CC2)cc1` [CBK304327]: the viability at 28.5 h, 10 µM was 90.7%.

For the compound `CCOc1ccc(S(=O)(=O)N2CCC(C(=O)N3CCN(C)CC3)CC2)cc1` [CBK270075], the viability at 28.5 h, 10 µM was 88.8%.

For the compound `CCOc1cccc2sc(NC(=O)CC)nc12` [CBK287307], the viability at 28.5 h, 10 µM came to 86.5%.

Consider `O=C1CC[C@@H](NCc2ccncc2)[C@H](c2cc(F)cc(F)c2)N1` [CBK283131], for which the viability at 28.5 h, 10 µM stood at 92.9%.

As a reminder, the viability is a read-out of living cells in per cent, often relative to untreated cells.
